# Experimental data as given in ChEMBL document CHEMBL1155328, “A conformational constraint improves a beta-secretase inhibitor but for an unexpected reason” (Bioorg Med Chem Lett, 2009).
# How the values were obtained:
# [1] = molecular target: Beta-secretase 1 (Homo sapiens, UniProt P56817); experiment: Inhibition of BACE-1
# [2] = test system: P-gp; experiment: (§1) Apparent permeability in human Caco-2 cells assessed as Pgp efflux ratio from basolateral to apical side to apical to basolateral side; format: ADME, cell-based
# [3] = test system: Caco-2; experiment: as §1; format: ADME, cell-based
# Chain of Beta-secretase 1 (P56817 whole entry): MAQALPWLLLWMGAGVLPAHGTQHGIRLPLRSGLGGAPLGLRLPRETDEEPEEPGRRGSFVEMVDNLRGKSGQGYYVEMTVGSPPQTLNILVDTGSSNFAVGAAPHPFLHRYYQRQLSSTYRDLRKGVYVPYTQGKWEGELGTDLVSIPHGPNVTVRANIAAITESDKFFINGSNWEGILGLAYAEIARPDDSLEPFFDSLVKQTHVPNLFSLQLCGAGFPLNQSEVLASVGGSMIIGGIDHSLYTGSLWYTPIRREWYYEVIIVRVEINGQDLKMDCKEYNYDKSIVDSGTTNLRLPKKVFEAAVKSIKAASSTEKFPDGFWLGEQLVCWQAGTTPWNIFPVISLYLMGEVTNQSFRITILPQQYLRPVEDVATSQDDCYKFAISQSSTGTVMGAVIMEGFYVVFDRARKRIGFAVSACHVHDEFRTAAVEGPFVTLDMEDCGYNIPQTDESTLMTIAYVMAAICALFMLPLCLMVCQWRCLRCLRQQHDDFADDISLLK
IC50 [1],Ratio [3],Structure (SMILES),efflux ratio [2]
350 nM,–,COc1ccc2c(c1)CCC2(Cc1ccc(C(F)(F)F)cc1)c1cn(C)c(N)n1 (stereo not given),–
1800 nM,4,COc1ccc(C(Cc2ccc(C(F)(F)F)cc2)c2cn(C)c(N)n2)cc1 (stereo not given),–

Structure (SMILES),IC50 [1],Ratio [3],efflux ratio [2]
COc1ccc2c(c1F)CCC2(Cc1ccc(C(F)(F)F)cc1)c1cn(C)c(N)n1 (stereo not given),63 nM,–,3.6
